What was measured:
NRAS WT = NRAS WT (Homo sapiens (Human), UniProt P01111+P62937); test: Ras-Raf (BRAF RBD) disruption / FRET / MOA assay, NRAS WT; assay type: biochemical; conditions: read-out: IC50* NRAS WT FRET data
Method: (§1) The purpose of this biochemical assay is to measure the ability of test compounds to facilitate ternary complex formation between a nucleotide-loaded Ras isoform and cyclophilin A; the resulting ternary complex disrupts binding to a BRAF^RBD construct, inhibiting Ras signaling through a RAF effector.
(§2) […]. Compound is present in plate wells as a 10-point 3-fold dilution series starting at a final concentration of 30 μM. After incubation at 25° C. for 3 hours, a mixture of Anti-His Eu-W1024 and anti-GST allophycocyanin is then added to assay sample wells at final concentrations of 10 nM and 50 nM, respectively, and the reaction incubated for an additional 1.5 hours. […] Compounds that facilitate disruption of a Ras:RAF complex are identified as those eliciting a decrease in the TR-FRET ratio relative to DMSO control wells.
(§3) Note—The following protocol describes a procedure for monitoring disruption of K-Ras G12C (GMP-PNP) binding to BRAF^RBD by a compound of the invention. This protocol may also be executed substituting other Ras proteins or nucleotides.
(§4) The purpose of this biochemical assay was to measure the ability of test compounds to facilitate ternary complex formation between a nucleotide-loaded K-Ras isoform and Cyclophilin A; the resulting ternary complex disrupts binding to a BRAF^RBD construct, inhibiting K-Ras signaling through a RAF effector. Data is reported as IC50 values.
as §2, with “Compound was” for “Compound is”, “allophycocyanin was” for “allophycocyanin is”, “a K-Ras:RAF” for “a Ras:RAF”, “complex were” for “complex are”

KRAS G13D = KRAS G13D (Homo sapiens (Human), UniProt P01116+P62937, G13D); test: Ras-Raf (BRAF RBD) disruption / FRET / MOA assay, KRAS G13D; assay type: biochemical; conditions: read-out: IC50* KRAS G13D FRET data
Summary of the method: (§5)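 Ras:RAF disruption was scored as a fall in TR-FRET ratio relative to DMSO. Compound ranged in 3-fold steps over 10 points from 30 μM final; incubation ran 3 h at 25° C, detection antibodies a further 1.5 h. Reported as IC50.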

[1] = tested on: NCI-H358 cells (K-Ras G12C); test: Potency assay: pERK in NCI-H358 cells; assay type: cell-based, human; conditions: Homo sapiens, NCI-H358; H358 KRAS G12C; read-out: pERK EC50
Summary of the method: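 Compounds are dosed as ten 3-fold dilutions from a 10 mM DMSO stock, in duplicate, and left on cells for 4 h at 37 °C, 5% CO2. Phospho-ERK1/2 is then quantified by AlphaLISA SureFire Ultra or In-Cell Western, and IC50 is derived from a 4-parameter sigmoid against log concentration.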

NRAS Q61K = NRAS Q61K (Homo sapiens (Human), UniProt P01111+P62937, Q61K); test: Ras-Raf (BRAF RBD) disruption / FRET / MOA assay, NRAS Q61K; assay type: biochemical; conditions: NRAS Q61K; Ras-Raf disruption/FRET/MOA assay; read-out: IC50* NRAS Q61K FRET data
Method: as §1, §2, §3, §4
as §2, with “Compound was” for “Compound is”, “allophycocyanin was” for “allophycocyanin is”, “a K-Ras:RAF” for “a Ras:RAF”, “complex were” for “complex are”

KRAS G12D = KRAS G12D (Homo sapiens (Human), UniProt P01116+P62937, G12D); test: Ras-Raf (BRAF RBD) disruption / FRET / MOA assay, KRAS G12D; assay type: biochemical; conditions: Ras-Raf disruption/FRET/MOA assay; class symbols; read-out: KRAS G12D FRET data IC50
Summary of the method: as §5

KRAS G12V = KRAS G12V (Homo sapiens (Human), UniProt P01116+P62937, G12V); test: Ras-Raf (BRAF RBD) disruption / FRET / MOA assay, KRAS G12V; assay type: biochemical; conditions: read-out: IC50* KRAS G12V FRET data
Summary of the method: as §5

KRAS Q61H = KRAS Q61H (Homo sapiens (Human), UniProt P01116+P62937, Q61H); test: Ras-Raf (BRAF RBD) disruption / FRET / MOA assay, KRAS Q61H; assay type: biochemical; conditions: Ras-Raf disruption/FRET/MOA assay; class symbols; read-out: KRAS Q61H FRET data IC50
Summary of the method: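 TR-FRET disruption of nucleotide-loaded Ras binding to BRAF RBD via compound-driven ternary complex with cyclophilin A. Compound as 10-point 3-fold series from 30 μM final, 3 h at 25° C, then anti-His Eu-W1024 (10 nM) and anti-GST allophycocyanin (50 nM) for 1.5 h. IC50 from decreased FRET ratio versus DMSO.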

K-Ras G12C = K-Ras G12C (Homo sapiens (Human), UniProt P01116+P62937, G12C); test: Ras-Raf (BRAF RBD) disruption / FRET / MOA assay, KRAS G12C; assay type: biochemical; conditions: KRAS G12C; Ras-Raf disruption/FRET/MOA assay; read-out: IC50* KRAS G12C FRET data
Summary of the method: as §5

KRAS WT = KRAS WT (Homo sapiens (Human), UniProt P01116+P62937); test: Ras-Raf (BRAF RBD) disruption / FRET / MOA assay, KRAS WT; assay type: biochemical; conditions: read-out: IC50* KRAS WT FRET data
Summary of the method: as §5

KRAS G12S = KRAS G12S (Homo sapiens (Human), UniProt P01116+P62937, G12S); test: Ras-Raf (BRAF RBD) disruption / FRET / MOA assay, KRAS G12S; assay type: biochemical; conditions: Ras-Raf disruption/FRET/MOA assay; class symbols; read-out: KRAS G12S FRET data IC50
Summary of the method: as §5

NRAS Q61R = NRAS Q61R (Homo sapiens (Human), UniProt P01111+P62937, Q61R); test: Ras-Raf (BRAF RBD) disruption / FRET / MOA assay, NRAS Q61R; assay type: biochemical; conditions: NRAS Q61R; Ras-Raf disruption/FRET/MOA assay; read-out: IC50* NRAS Q61R FRET data
Method: as §1, §2, §3, §4
as §2, with “Compound was” for “Compound is”, “allophycocyanin was” for “allophycocyanin is”, “a K-Ras:RAF” for “a Ras:RAF”, “complex were” for “complex are”

NRAS G12C = NRAS G12C (Homo sapiens (Human), UniProt P01111+P62937, G12C); test: Ras-Raf (BRAF RBD) disruption / FRET / MOA assay, NRAS G12C; assay type: biochemical; conditions: read-out: IC50* NRAS G12C FRET data
Summary of the method: as §5

K-Ras G13C = K-Ras G13C (Homo sapiens (Human), UniProt P01116+P62937, G13C); test: Ras-Raf (BRAF RBD) disruption / FRET / MOA assay, KRAS G13C; assay type: biochemical; conditions: KRAS G13C; Ras-Raf disruption/FRET/MOA assay; read-out: IC50* KRAS G13C FRET data
Summary of the method: as §5

Chain of NRAS G12C (P01111 whole entry G12C): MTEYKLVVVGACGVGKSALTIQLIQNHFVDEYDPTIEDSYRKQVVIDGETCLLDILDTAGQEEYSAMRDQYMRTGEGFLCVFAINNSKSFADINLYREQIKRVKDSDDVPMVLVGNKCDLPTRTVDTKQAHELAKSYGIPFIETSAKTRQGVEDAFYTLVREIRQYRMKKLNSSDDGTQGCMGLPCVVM
Chain of NRAS G12C (P62937 whole entry): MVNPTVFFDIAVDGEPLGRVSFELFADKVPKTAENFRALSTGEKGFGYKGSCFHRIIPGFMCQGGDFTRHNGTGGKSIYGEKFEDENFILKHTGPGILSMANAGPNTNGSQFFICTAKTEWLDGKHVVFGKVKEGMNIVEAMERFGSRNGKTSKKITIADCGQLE
Chain of KRAS G12S (P01116-2 other isoform, or with tags, fused parts or gaps G12S): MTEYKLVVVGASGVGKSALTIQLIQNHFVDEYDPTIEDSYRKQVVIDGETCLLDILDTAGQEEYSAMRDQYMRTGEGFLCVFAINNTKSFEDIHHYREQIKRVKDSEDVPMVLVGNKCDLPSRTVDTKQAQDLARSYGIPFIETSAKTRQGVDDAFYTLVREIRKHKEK
Chain of KRAS G12S (P62937 whole entry): as the sequence (P62937 whole entry) above
Chain of KRAS Q61H (P01116-2 other isoform, or with tags, fused parts or gaps Q61H): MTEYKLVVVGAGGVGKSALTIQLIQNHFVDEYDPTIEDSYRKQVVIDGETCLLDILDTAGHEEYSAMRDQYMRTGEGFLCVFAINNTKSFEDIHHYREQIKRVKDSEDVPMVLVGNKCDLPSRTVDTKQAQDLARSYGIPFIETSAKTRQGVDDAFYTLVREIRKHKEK
Chain of KRAS Q61H (P62937 whole entry): as the sequence (P62937 whole entry) above
Chain of KRAS WT (P01116-2 other isoform, or with tags, fused parts or gaps): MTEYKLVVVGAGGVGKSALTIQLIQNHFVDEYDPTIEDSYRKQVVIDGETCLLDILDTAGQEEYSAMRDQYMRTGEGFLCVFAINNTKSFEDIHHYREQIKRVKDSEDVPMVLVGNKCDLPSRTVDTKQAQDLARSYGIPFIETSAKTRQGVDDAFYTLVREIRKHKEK
Chain of KRAS WT (P62937 whole entry): as the sequence (P62937 whole entry) above
Chain of NRAS Q61K (P01111 whole entry Q61K): as the sequence (P01111 whole entry G12C) above, with C12G, Q61K counted along it
Chain of NRAS Q61K (P62937 whole entry): as the sequence (P62937 whole entry) above
Chain of K-Ras G12C (P01116-2 other isoform, or with tags, fused parts or gaps G12C): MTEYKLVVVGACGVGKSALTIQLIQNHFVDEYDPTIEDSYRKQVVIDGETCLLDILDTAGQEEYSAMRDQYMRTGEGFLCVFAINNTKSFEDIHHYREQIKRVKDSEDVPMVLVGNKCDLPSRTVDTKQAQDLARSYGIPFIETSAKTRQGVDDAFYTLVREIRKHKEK
Chain of K-Ras G12C (P62937 whole entry): as the sequence (P62937 whole entry) above
Chain of K-Ras G13C (P01116-2 other isoform, or with tags, fused parts or gaps G13C): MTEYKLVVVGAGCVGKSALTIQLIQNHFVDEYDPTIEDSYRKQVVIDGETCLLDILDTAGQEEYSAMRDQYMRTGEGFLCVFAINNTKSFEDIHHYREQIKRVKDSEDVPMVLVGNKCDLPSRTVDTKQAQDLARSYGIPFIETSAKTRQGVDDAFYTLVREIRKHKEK
Chain of K-Ras G13C (P62937 whole entry): as the sequence (P62937 whole entry) above
Chain of KRAS G13D (P01116-2 other isoform, or with tags, fused parts or gaps G13D): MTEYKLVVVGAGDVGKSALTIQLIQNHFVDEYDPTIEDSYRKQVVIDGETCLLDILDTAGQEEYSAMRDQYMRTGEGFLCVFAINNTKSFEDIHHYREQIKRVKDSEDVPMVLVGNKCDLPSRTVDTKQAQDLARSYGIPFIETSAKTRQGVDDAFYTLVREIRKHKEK
Chain of KRAS G13D (P62937 whole entry): as the sequence (P62937 whole entry) above
Chain of NRAS WT (P01111 whole entry, canonical isoform): as the sequence (P01111 whole entry G12C) above, with C12G counted along it
Chain of NRAS WT (P62937 whole entry, canonical isoform): as the sequence (P62937 whole entry) above
Chain of KRAS G12D (P01116-2 other isoform, or with tags, fused parts or gaps G12D): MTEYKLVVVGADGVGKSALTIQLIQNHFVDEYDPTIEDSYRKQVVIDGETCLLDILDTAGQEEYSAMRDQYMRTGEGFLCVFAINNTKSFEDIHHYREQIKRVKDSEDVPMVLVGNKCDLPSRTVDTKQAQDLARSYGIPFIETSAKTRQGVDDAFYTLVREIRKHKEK
Chain of KRAS G12D (P62937 whole entry): as the sequence (P62937 whole entry) above
Chain of NRAS Q61R (P01111 whole entry Q61R): as the sequence (P01111 whole entry G12C) above, with C12G, Q61R counted along it
Chain of NRAS Q61R (P62937 whole entry): as the sequence (P62937 whole entry) above
Chain of KRAS G12V (P01116-2 other isoform, or with tags, fused parts or gaps G12V): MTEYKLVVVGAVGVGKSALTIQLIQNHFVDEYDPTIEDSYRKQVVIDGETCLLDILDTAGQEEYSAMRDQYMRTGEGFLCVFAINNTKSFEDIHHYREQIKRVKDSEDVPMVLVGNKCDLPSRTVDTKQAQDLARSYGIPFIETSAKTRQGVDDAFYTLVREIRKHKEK
Chain of KRAS G12V (P62937 whole entry): as the sequence (P62937 whole entry) above

| IC50 (NRAS WT) [µM] | IC50 (KRAS G13D) [µM] | EC50 [1] [µM] | IC50 (NRAS Q61K) [µM] | IC50 (KRAS G12D) [µM] | IC50 (KRAS G12V) [µM] | IC50 (KRAS Q61H) [µM] | IC50 (K-Ras G12C) [µM] | IC50 (KRAS WT) [µM] | IC50 (KRAS G12S) [µM] | IC50 (NRAS Q61R) [µM] | IC50 (NRAS G12C) [µM] | IC50 (K-Ras G13C) [µM] | Compound |
| --- | --- | --- | --- | --- | --- | --- | --- | --- | --- | --- | --- | --- | --- |
| 1 to 10 | > 10 | < 5 | 1 to 10 | > 10 | > 10 | 1 to 10 | 0.1 to 1 | 1 to 10 | 1 to 10 | 1 to 10 | 0.1 to 1 | 1 to 10 | C=CC(=O)N1CC[C@H](C(=O)N(C)[C@H](C(=O)N[C@H]2Cc3nc(cs3)-c3ccc4c(n3)c(c(-c3cccnc3[C@H](C)OC)n4CC)CC(C)(C)COC(=O)[C@@H]3CCCN(N3)C2=O)C(C)C)C1 [Example A347, (2S)-N-[(7S,13S)-21-ethyl-20-{2-[(1S)-1-methoxyethyl]pyridin-3-yl}-17,17-dimethyl-8,14-dioxo-15-oxa-4-thia-9,21,25,27,28-pentaazapentacyclo[17.5.2.1^{2,5}.1^{9,13}.0^{22,26}]octacosa-1(25),2,5(28),19,22(26),23-hexaen-7-yl]-3-methyl-2-{N-methyl-1-[(3S)-1-(prop-2-enoyl)pyrrolidin-3-yl]formamido}butanamide] |
| > 10 | > 10 | < 5 | > 10 | > 10 | > 10 | > 10 | 0.01 to 0.1 | > 10 | > 10 | > 10 | 0.01 to 0.1 | 1 to 10 | CCn1c(-c2cccnc2[C@H](C)OC)c2c3cc(ccc31)N1CCO[C@@H](C[C@H](NC(=O)[C@H](C(C)C)N3CC[C@@]4(CCN(C(=O)C#CC(C)(C)N(C)C)C4)C3=O)C(=O)N3CCC[C@H](N3)C(=O)OCC(C)(C)C2)C1 (atropisomer, axis not shown) [Example A614] |
| 1 to 10 | 1 to 10 | < 5 | 1 to 10 | > 10 | 1 to 10 | 1 to 10 | < 0.01 | 1 to 10 | 1 to 10 | 1 to 10 | < 0.01 | 1 to 10 | CCn1c(-c2cccnc2[C@H](C)OC)c2c3cc(ccc31)-c1cccc(c1)C[C@H](NC(=O)[C@H](C1CCCC1)N(C)C(=O)[C@@H]1CN(C(=O)C#CC(C)(C)N(C)C)C[C@@H]1C)C(=O)N1CCC[C@H](N1)C(=O)OCC(C)(C)C2 (atropisomer, axis not shown) [Example A391] |
| 0.1 to 1 | 0.1 to 1 | < 5 | 0.1 to 1 | 1 to 10 | 0.1 to 1 | 0.1 to 1 | < 0.01 | 0.1 to 1 | 0.1 to 1 | 0.1 to 1 | < 0.01 | 0.01 to 0.1 | CCn1c(-c2cccnc2[C@H](C)OC)c2c3cc(ccc31)-c1cccc(c1)C[C@H](NC(=O)[C@H](C(C)C)N(C)C(=O)C1(F)CCN(C(=O)C#CC(C)(C)N(C)C)CC1)C(=O)N1CCC[C@H](N1)C(=O)OCC(C)(C)C2 (atropisomer, axis not shown) [Example A699] |
| 1 to 10 | 1 to 10 | < 5 | 1 to 10 | 1 to 10 | 1 to 10 | 1 to 10 | 0.01 to 0.1 | 1 to 10 | 1 to 10 | 1 to 10 | 0.01 to 0.1 | 0.1 to 1 | CO[C@@H](C)c1ncccc1-c1c2c3cc(ccc3n1CC(F)(F)F)-c1cc(cc(C(F)F)c1)C[C@H](NC(=O)[C@H](C(C)C)N(C)C(=O)[C@H]1CCN(C(=O)C#CC(C)(C)N3CCC3)C1)C(=O)N1CCC[C@H](N1)C(=O)OCC(C)(C)C2 (atropisomer, axis not shown) [Example A370] |
| 1 to 10 | > 10 | < 5 | > 10 | > 10 | 1 to 10 | > 10 | 0.1 to 1 | 1 to 10 | 1 to 10 | > 10 | 0.1 to 1 | 1 to 10 | C=CC(=O)N1CC[C@H](C(=O)N(C)[C@H](C(=O)N[C@H]2C[C@H]3CN(CCO3)c3ccc4c(c3)c(c(-c3cccnc3[C@H](C)OC)n4CC)CC(C)(C)COC(=O)[C@@H]3CCCN(N3)C2=O)C(C)C)C1 (atropisomer, axis not shown) [Example A378] |
| 0.01 to 0.1 | 0.1 to 1 | < 5 | 0.01 to 0.1 | 0.1 to 1 | 0.1 to 1 | 0.01 to 0.1 | 0.01 to 0.1 | > 10 | 0.01 to 0.1 | 0.01 to 0.1 | 0.01 to 0.1 | 0.1 to 1 | C=CC(=O)N1CCO[C@@H]2CCN(C(=O)N(C)[C@H](C(=O)N[C@H]3Cc4nc(cs4)-c4ccc5c(c4)c(c(-c4cccnc4[C@H](C)OC)n5CC)CC(C)(C)COC(=O)[C@@H]4CCCN(N4)C3=O)C(C)C)CC21 (some centres unmarked) [Example A596] |

| Compound | IC50 (NRAS WT) [µM] | IC50 (KRAS G13D) [µM] | EC50 [1] [µM] | IC50 (NRAS Q61K) [µM] | IC50 (KRAS G12D) [µM] | IC50 (KRAS G12V) [µM] | IC50 (KRAS Q61H) [µM] | IC50 (K-Ras G12C) [µM] | IC50 (KRAS WT) [µM] | IC50 (KRAS G12S) [µM] | IC50 (NRAS Q61R) [µM] | IC50 (NRAS G12C) [µM] | IC50 (K-Ras G13C) [µM] |
| --- | --- | --- | --- | --- | --- | --- | --- | --- | --- | --- | --- | --- | --- |
| CO[C@@H](C)c1ncccc1-c1c2c3cc(ccc3n1CC(F)(F)F)-c1csc(n1)C[C@H](NC(=O)[C@H](C(C)C)N(C)C(=O)N1C[C@@H]3OCCN(C(=O)/C=C/C(F)F)[C@@H]3C1)C(=O)N1CCC[C@H](N1)C(=O)OCC(C)(C)C2 (atropisomer, axis not shown) [Example A572] | 0.1 to 1 | 1 to 10 | < 5 | 0.1 to 1 | 1 to 10 | 0.1 to 1 | 0.1 to 1 | 0.01 to 0.1 | 0.1 to 1 | 0.1 to 1 | 0.1 to 1 | 0.01 to 0.1 | 0.01 to 0.1 |

Reference: patent publication US11566007B2, “Ras inhibitors” (Revolution Medicines, Inc., priority 2019, dated 2023)
